According to the supplement of paper PMC5908809:

How the values were obtained:
[1] = system: normal primary NK cells, pool 1 (3 donors) (IL-2 2.5 ng/mL); assay: percent inhibition of viability; higher = more inhibition; settings: 72 h
[2] = system: NK-92 (IL-2 2.5 ng/mL); assay: as above; settings: 72 h
[3] = system: NKL (IL-2 2.5 ng/mL); assay: as above; settings: 72 h
[4] = system: normal primary NK cells, pool 3 (3 donors) (IL-2 2.5 ng/mL); assay: as above; settings: 72 h
[5] = system: KHYG-1 (IL-2 2.5 ng/mL); assay: as above; settings: 72 h
[6] = system: YT (IL-2 2.5 ng/mL); assay: as above; settings: 72 h
[7] = system: IMC-1 (IL-2 20 ng/mL); assay: as above; settings: 72 h
[8] = system: DERL-7 (IL-2 2.5 ng/mL); assay: as above; settings: 72 h
[9] = system: SNK-6 (IL-2 2.5 ng/mL); assay: as above; settings: 72 h
[10] = system: normal primary NK cells, pool 1 (3 donors), resting (IL-2 0 ng/mL); assay: as above; settings: 72 h
[11] = system: normal primary NK cells, pool 2 (3 donors) (IL-2 2.5 ng/mL); assay: as above; settings: 72 h
[12] = system: KAI3 (IL-2 2.5 ng/mL); assay: as above; settings: 72 h
[13] = system: NK-YS (IL-2 2.5 ng/mL); assay: as above; settings: 72 h
[14] = system: normal primary NK cells, pool 1 (3 donors) (IL-2 2.5 ng/mL); assay: drug sensitivity score (DSS) (DSS units); higher = more sensitive; extreme values may be limits of the assay; settings: 72 h
[15] = system: NK-92 (IL-2 2.5 ng/mL); assay: as above; settings: 72 h
[16] = system: NKL (IL-2 2.5 ng/mL); assay: as above; settings: 72 h
[17] = system: normal primary NK cells, pool 3 (3 donors) (IL-2 2.5 ng/mL); assay: as above; settings: 72 h
[18] = system: KHYG-1 (IL-2 2.5 ng/mL); assay: as above; settings: 72 h
[19] = system: YT (IL-2 2.5 ng/mL); assay: as above; settings: 72 h
[20] = system: IMC-1 (IL-2 20 ng/mL); assay: as above; settings: 72 h
[21] = system: DERL-7 (IL-2 2.5 ng/mL); assay: as above; settings: 72 h
[22] = system: SNK-6 (IL-2 2.5 ng/mL); assay: as above; settings: 72 h
[23] = system: normal primary NK cells, pool 1 (3 donors), resting (IL-2 0 ng/mL); assay: as above; settings: 72 h
[24] = system: normal primary NK cells, pool 2 (3 donors) (IL-2 2.5 ng/mL); assay: as above; settings: 72 h
[25] = system: KAI3 (IL-2 2.5 ng/mL); assay: as above; settings: 72 h
[26] = system: NK-YS (IL-2 2.5 ng/mL); assay: as above; settings: 72 h
[27] = system: normal NK cells expanded with K562-aAPC; assay: percent inhibition of viability; higher = more inhibition; settings: 72 h, IL-2 2.5 ng/mL
Experimental: (§1)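 Drug sensitivity and resistance testing on K562-aAPC-expanded normal NK cells: 5 concentrations (10-fold steps over a 10,000-fold range), 72 h at 37 °C, viability by CellTiter-Glo normalised to DMSO and benzethonium chloride controls; DSS from the fitted curve.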

[28] = system: normal NK cells expanded with K562-aAPC; assay: drug sensitivity score (DSS) (DSS units); higher = more sensitive; extreme values may be limits of the assay; settings: 72 h; IL-2 2.5 ng/mL
Experimental: as §1

CC[C@H](Nc1ncnc2[nH]cnc12)c1nc2cccc(F)c2c(=O)n1-c1ccccc1 [Idelalisib] (max concentration tested 10000 nM)
percent inhibition of viability [%]
Settings | 1 nM | 10 nM | 100 nM | 1000 nM | 10000 nM
[1] | -2.62 | 10.2 | 9.54 | 5.66 | 28.7
[2] | 7.56 | 15.2 | 42.3 | 40.1 | 54.5
[3] | -12.5 | -5.82 | 11 | 18.2 | 37
[4] | -3.21 | -0.12 | 6.64 | 10.3 | 26.2
[5] | -5.24 | 5.27 | 6.69 | 5.88 | 20.5
[6] | 1.69 | 6.88 | 13.7 | 12.4 | 27.4
[7] | -6.02 | -6.45 | -0.47 | -2.08 | 11.1
[8] | 0.81 | 7.45 | 12.8 | 35.1 | 66.8
[9] | -11.8 | -5.04 | 17.2 | 23.9 | 57.8
[10] | 1.24 | 15.1 | 10.3 | 1.19 | 46.2
[11] | -10.8 | -5.29 | 14.8 | 13.4 | 35.6
[12] | -6.15 | 4.84 | 14.3 | 12.3 | 24.5
[13] | -9.88 | -3.78 | 3.49 | -1.8 | 18
[27] | -1.29 | -3.37 | 3.42 | 14.1 | 38.7

Settings | drug sensitivity score
[14] | 1.85
[15] | 14.8
[16] | 3.92
[17] | 1.78
[18] | 0.8
[19] | 3
[20] | 0
[21] | 8.42
[22] | 6.33
[23] | 2.55
[24] | 3.36
[25] | 2.76
[26] | 0.36
[28] | 3.47

CCC(C)n1ncn(-c2ccc(N3CCN(c4ccc(OCC5COC(Cn6cncn6)(c6ccc(Cl)cc6Cl)O5)cc4)CC3)cc2)c1=O (configuration not stated) [Itraconazole] (max concentration tested 5000 nM)
percent inhibition of viability [%]
Settings | 0.5 nM | 5 nM | 50 nM | 500 nM | 5000 nM
[1] | -10.8 | -2.66 | -5.12 | 4.85 | 30.5
[2] | -7.29 | -11.1 | -8.89 | 38.2 | 91.5
[3] | 6.31 | -2.93 | -3.73 | -6.13 | 84.8
[4] | -9.47 | -2.98 | -1.54 | 12.1 | 22.5
[5] | -2.72 | 3.74 | 1.39 | 6.98 | 98.1
[6] | -3.86 | -5.55 | -5.66 | 0.63 | 45.8
[7] | -1.82 | -3.66 | -2.37 | 9.1 | 29.4
[8] | 7.65 | 4.19 | -0.11 | 8.64 | 83.6
[9] | -8.18 | 3.54 | 19.4 | 39.2 | 93.4
[10] | -22.8 | -11.8 | -19.2 | -4.28 | 28.1
[11] | 0.8 | -6.34 | 8.01 | 14.5 | 25.8
[12] | 6.2 | -4.32 | -3.2 | 12.8 | 91.9
[13] | 3.15 | -1.22 | -1.67 | 8.46 | 68.9
[27] | -0.18 | -0.93 | 0.65 | 2.54 | 33

Settings | drug sensitivity score
[14] | 2.13
[15] | 10.1
[16] | 4.25
[17] | 2.08
[18] | 6.51
[19] | 2.44
[20] | 2.54
[21] | 6.05
[22] | 10.3
[23] | 0.93
[24] | 2.45
[25] | 7.24
[26] | 5.2
[28] | 1.9

O=C(Cc1ccc(-c2ccc(OCCN3CCOCC3)cc2)cn1)NCc1ccccc1 [KX2-391] (max concentration tested 10000 nM)
percent inhibition of viability [%]
Settings | 1 nM | 10 nM | 100 nM | 1000 nM | 10000 nM
[1] | -14.5 | -16.4 | 1.64 | 8.22 | 36.6
[2] | 2.97 | 44 | 92.2 | 104 | 96.8
[3] | -12.7 | 5.97 | 94.5 | 96.4 | 89
[4] | -15.5 | -9.53 | -0.96 | 0.59 | 6.59
[5] | -5.79 | 3.13 | 98.5 | 107 | 98.1
[6] | -2.25 | 14.7 | 95.6 | 102 | 95.2
[7] | -2.07 | -3.69 | 99.1 | 100 | 100
[8] | -1.42 | 5.02 | 99.3 | 99.9 | 98.9
[9] | 27.9 | 54 | 79.7 | 91.6 | 95.2
[10] | -13.2 | -19.8 | 7.03 | 7.66 | 29.1
[11] | -6.2 | -11.1 | -5.76 | 6.08 | 22.6
[12] | -3.67 | 25.5 | 55.4 | 76.7 | 70.3
[13] | -1.95 | 18.5 | 69.3 | 80.8 | 81.6
[27] | -2.89 | -0.99 | 57 | 55.9 | 57.5

Settings | drug sensitivity score
[14] | 3.06
[15] | 34.8
[16] | 30.1
[17] | 0
[18] | 30.7
[19] | 32
[20] | 30
[21] | 31.1
[22] | 34.7
[23] | 2.04
[24] | 1.59
[25] | 23
[26] | 25.4
[28] | 17.9
